The target in this experiment is DGKα (Homo sapiens, UniProt P23743). Kind of experiment: Human DGKα kinase activity inhibition assay (ADP-Glo). It counts as biochemical. The note with it: in vitro human DGKα kinase activity inhibition assay. The method, then: Human DGKα inhibitory activity of compounds of the present invention was quantified employing the human DGKα kinase activity assay as described in the following paragraphs. In essence, the enzyme activity was measured by quantification of the adenosine-di-phosphate (ADP) generated as a co-product of the enzyme reaction via the “ADP-Glo™ Kinase Assay” kit from the company Promega. This detection system works as follows: In a first step the ATP not consumed in the kinase reaction is quantitatively converted to cAMP employing an adenylate cyclase (“ADP-Glo-reagent”), then the adenylate cyclase is stopped and the ADP generated in the kinase reaction converted to ATP, which subsequently generates in a luciferase-based reaction a glow-luminescence signal (“Kinase Detection Reagent”). C-terminally FLAG-tagged, recombinant full-length human DGKα (expressed in baculovirus infected insect cells, purified using anti-Flag pulldown and size exclusion chromatography as described below, DGKα_hu_1) was used as enzyme. As substrate for the kinase 1,2-dioleoyl-sn-glycerol, reconstituted in octyl-β-D-glucopyranoside micelles, was used. For the preparation of the micelles, 1 volume of a 16.1 mM solution of 1,2-dioleoyl-sn-glycerol (Avanti, Cat. #O8001-25G) in chloroform was slowly evaporated using a nitrogen stream. Subsequently, 22.55 volumes of a 510 mM solution of octyl-β-D-glucopyranoside (Sigma-Aldrich, Cat. #O8001-10G) in 50 mM MOPS buffer (pH 7.4) were added, and the mixture was sonicated in an ultrasonic bath for 20 s. Then 35 volumes of 50 mM MOPS buffer (pH 7.4) were added to yield a solution of 0.28 mM 1,2 dioleoyl-sn-glycerol and 200 mM octyl-β-D-glucopyranoside, which was aliquoted, flash-frozen in liquid nitrogen, and stored at −20° C. until use. For each experiment, a fresh aliquot was quickly thawed and diluted 24-fold with aqueous assay buffer (described below) containing 95.7 μM adenosine triphosphate (Promega) to yield a 1.67-fold concentrated substrate solution. For the assay 50 nl of a 100-fold concentrated solution of the test compound in dimethyl sulfoxide (DMSO, Sigma) was pipetted into either a white 1536-well or a white low-volume 384-well microtiter plate (both Greiner Bio-One, Frickenhausen, Germany). […] The concentration of DGK a was adjusted depending of the activity of the enzyme lot and was chosen appropriate to have the assay in the linear range, a typical concentration is about 0.1 nM. The reaction was stopped by the addition of 2.5 μl of “ADP-Glo-reagent” (1 to 1.5 diluted with water) and the resulting mixture was incubated at 22° C. for 1 h to convert the ATP not consumed in the kinase reaction completely to cAMP. […] The amount of emitted light was taken as a measure for the amount of ADP generated and thereby for the activity of the DGKα.
(In ADP-Glo the light output rises with the ADP produced.)

A word on the IC50: it is the midpoint of a concentration-inhibition curve.

Sequence of DGKα (P23743 with tags, fused parts or gaps): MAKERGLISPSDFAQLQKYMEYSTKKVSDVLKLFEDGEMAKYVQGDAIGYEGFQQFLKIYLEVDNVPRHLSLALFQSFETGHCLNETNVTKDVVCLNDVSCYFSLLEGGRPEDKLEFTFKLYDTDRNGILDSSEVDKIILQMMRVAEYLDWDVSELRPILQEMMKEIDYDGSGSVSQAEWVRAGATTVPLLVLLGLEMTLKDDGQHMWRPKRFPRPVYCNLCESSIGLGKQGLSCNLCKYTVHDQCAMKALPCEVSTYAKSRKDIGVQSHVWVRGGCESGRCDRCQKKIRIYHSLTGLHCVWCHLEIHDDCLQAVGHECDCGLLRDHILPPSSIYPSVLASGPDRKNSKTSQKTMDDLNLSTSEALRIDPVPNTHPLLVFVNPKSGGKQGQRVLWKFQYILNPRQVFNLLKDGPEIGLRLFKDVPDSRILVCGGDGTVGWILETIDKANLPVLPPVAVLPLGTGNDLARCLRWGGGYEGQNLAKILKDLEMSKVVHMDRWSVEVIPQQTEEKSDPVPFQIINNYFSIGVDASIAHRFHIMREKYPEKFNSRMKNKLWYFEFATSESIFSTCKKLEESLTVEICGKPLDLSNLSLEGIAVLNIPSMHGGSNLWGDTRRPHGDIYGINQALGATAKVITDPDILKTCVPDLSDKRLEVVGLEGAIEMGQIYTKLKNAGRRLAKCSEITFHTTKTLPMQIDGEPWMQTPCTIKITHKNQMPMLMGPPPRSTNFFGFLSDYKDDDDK

Regarding `Cn1c(=O)c(C#N)c(N2CCCC(Oc3ccc(OC(F)(F)F)cc3)CC2)c2ccccc21` (racemic) [Example 100, (rac)-1-methyl-2-oxo-4-{4-[4-(trifluoromethoxy)phenoxy]azepan-1-yl}-1,2-dihydroquinoline-3-carbonitrile], the IC50 came to 0.0083 µM. Regarding `Cn1c(=O)c(C#N)c(N2CCCC(Oc3ccc(Br)cc3)CC2)c2ccccc21` (racemic) [Example 103, (rac)-4-[4-(4-bromophenoxy)azepan-1-yl]-1-methyl-2-oxo-1,2-dihydroquinoline-3-carbonitrile], half-maximal inhibition (IC50) required 0.018 µM.

`Cn1c(=O)c(C#N)c(N2CCCC(Oc3ccc(N4CCC4)cc3)CC2)c2ccccc21` (racemic) [Example 104, (rac)-4-{4-[4-(azetidin-1-yl)phenoxy]azepan-1-yl}-1-methyl-2-oxo-1,2-dihydroquinoline-3-carbonitrile] gave an IC50 of 0.04 µM.

`Cn1cc(-c2ccc(OC3CCCN(c4c(C#N)c(=O)n(C)c5ccccc45)CC3)cc2)cn1` (racemic) [Example 105, (rac)-1-methyl-4-{4-[4-(1-methyl-1H-pyrazol-4-yl)phenoxy]azepan-1-yl}-2-oxo-1,2-dihydroquinoline-3-carbonitrile] returned an IC50 of 0.033 µM. The value for `CC(OC1CCN(c2c(C#N)c(=O)n(C)c3ccccc23)CC1)c1ccccc1` (racemic) [Example 112, (rac)-1-methyl-2-oxo-4-[4-(1-phenylethoxy)piperidin-1-yl]-1,2-dihydroquinoline-3-carbonitrile] was 0.01 µM; that for `Cn1c(=O)c(C#N)c(N2CCCC(Oc3ccc(OC(F)(F)F)cc3)CC2)c2ccccc21` (single isomer, unassigned; enantiomer 1) [Example 101, 1-methyl-2-oxo-4-{4-[4-(trifluoromethoxy)phenoxy]azepan-1-yl}-1,2-dihydroquinoline-3-carbonitrile, enantiomer 1] was 0.0074 µM. For the molecule `Cn1c(=O)c(C#N)c(N2CCCC(Oc3ccc(OC(F)(F)F)cc3)CC2)c2ccccc21` (single isomer, unassigned; enantiomer 2) [Example 102, 1-methyl-2-oxo-4-{4-[4-(trifluoromethoxy)phenoxy]azepan-1-yl}-1,2-dihydroquinoline-3-carbonitrile, enantiomer 2], the IC50 turned out to be 0.018 µM. For `Cc1ccc(OC2CCN(c3c(C#N)c(=O)n(C)c4ccccc34)CC2)cc1` [Example 1, 1-methyl-4-[4-(4-methylphenoxy)piperidin-1-yl]-2-oxo-1,2-dihydroquinoline-3-carbonitrile], it took 0.0042 µM to reach half-maximal inhibition (IC50). With `Cn1c(=O)c(C#N)c(N2CCC(Oc3ccc(OC(F)(F)F)cc3)CC2)c2ccccc21` [Example 2, 1-methyl-2-oxo-4-{4-[4-(trifluoromethoxy)phenoxy]piperidin-1-yl}-1,2-dihydroquinoline-3-carbonitrile], the IC50 was determined as 0.0039 µM.

In turn, `Cc1cccc(OC2CCN(c3c(C#N)c(=O)n(C)c4ccccc34)CC2)c1` [Example 3, 1-methyl-4-[4-(3-methylphenoxy)piperidin-1-yl]-2-oxo-1,2-dihydroquinoline-3-carbonitrile] yielded an IC50 of 0.0062 µM. Molecule `COc1cccc(OC2CCN(c3c(C#N)c(=O)n(C)c4ccccc34)CC2)c1` [Example 4, 4-[4-(3-methoxyphenoxy)piperidin-1-yl]-1-methyl-2-oxo-1,2-dihydroquinoline-3-carbonitrile] showed a concentration for half-maximal inhibition (IC50) of 0.0063 µM.

Regarding `Cn1c(=O)c(C#N)c(N2CCC(Oc3ccccc3)CC2)c2ccccc21` [Example 5, 1-methyl-2-oxo-4-(4-phenoxypiperidin-1-yl)-1,2-dihydroquinoline-3-carbonitrile], half-maximal inhibition (IC50) required 0.0077 µM. As to `Cn1c(=O)c(C#N)c(N2CCC(Oc3ccc(F)cc3)CC2)c2ccccc21` [Example 6, 4-[4-(4-fluorophenoxy)piperidin-1-yl]-1-methyl-2-oxo-1,2-dihydroquinoline-3-carbonitrile], half-maximal inhibition (IC50) required 0.0084 µM. Take `Cn1c(=O)c(C#N)c(N2CCC(Oc3cccc(F)c3)CC2)c2ccccc21` [Example 7, 4-[4-(3-fluorophenoxy)piperidin-1-yl]-1-methyl-2-oxo-1,2-dihydroquinoline-3-carbonitrile]: the IC50 stood at 0.0086 µM. In turn, `Cn1c(=O)c(C#N)c(N2CCC(Oc3ccc(Br)cc3)CC2)c2ccccc21` [Example 8, 4-[4-(4-bromophenoxy)piperidin-1-yl]-1-methyl-2-oxo-1,2-dihydroquinoline-3-carbonitrile] came in with an IC50 of 0.013 µM. To `Cn1c(=O)c(C#N)c(N2CCC(Oc3cccc(Cl)c3)CC2)c2ccccc21` [Example 9, 4-[4-(3-chlorophenoxy)piperidin-1-yl]-1-methyl-2-oxo-1,2-dihydroquinoline-3-carbonitrile] belongs 0.0091 µM; to `Cn1c(=O)c(C#N)c(N2CCC(Oc3ccc(Cl)cc3)CC2)c2ccccc21` [Example 10, 4-[4-(4-chlorophenoxy)piperidin-1-yl]-1-methyl-2-oxo-1,2-dihydroquinoline-3-carbonitrile], 0.01 µM; to `COc1ccccc1OC1CCN(c2c(C#N)c(=O)n(C)c3ccccc23)CC1` [Example 11, 4-[4-(2-methoxyphenoxy)piperidin-1-yl]-1-methyl-2-oxo-1,2-dihydroquinoline-3-carbonitrile], 0.011 µM. `CCOC(=O)c1ccc(OC2CCN(c3c(C#N)c(=O)n(C)c4ccccc34)CC2)cc1` [Example 12, ethyl 4-{[1-(3-cyano-1-methyl-2-oxo-1,2-dihydroquinolin-4-yl)piperidin-4-yl]oxy}benzoate] returned a 50% inhibitory concentration (IC50) of 0.012 µM.

`Cn1c(=O)c(C#N)c(N2CCC(Oc3ccc(C(F)(F)F)cc3)CC2)c2ccccc21` [Example 13, 1-methyl-2-oxo-4-{4-[4-(trifluoromethyl)phenoxy]piperidin-1-yl}-1,2-dihydroquinoline-3-carbonitrile] gave an IC50 of 0.014 µM. To `Cc1ccccc1OC1CCN(c2c(C#N)c(=O)n(C)c3ccccc23)CC1` [Example 14, 1-methyl-4-[4-(2-methylphenoxy)piperidin-1-yl]-2-oxo-1,2-dihydroquinoline-3-carbonitrile] belongs 0.014 µM; to `Cn1c(=O)c(C#N)c(N2CCC(Oc3cccc(C(F)(F)F)c3)CC2)c2ccccc21` [Example 15, 1-methyl-2-oxo-4-{4-[3-(trifluoromethyl)phenoxy]piperidin-1-yl}-1,2-dihydroquinoline-3-carbonitrile], 0.014 µM. The molecule `Cn1c(=O)c(C#N)c(N2CCC(Oc3ccccc3Cl)CC2)c2ccccc21` [Example 16, 4-[4-(2-chlorophenoxy)piperidin-1-yl]-1-methyl-2-oxo-1,2-dihydroquinoline-3-carbonitrile] returned an IC50 of 0.033 µM.

Consider `Cn1c(=O)c(C#N)c(N2CCC(Oc3ccc(-n4cncn4)cc3)CC2)c2ccccc21` [Example 17, 1-methyl-2-oxo-4-{4-[4-(1H-1,2,4-triazol-1-yl)phenoxy]piperidin-1-yl}-1,2-dihydroquinoline-3-carbonitrile], for which it took 0.045 µM to reach half-maximal inhibition (IC50). The value for `Cn1c(=O)c(C#N)c(N2CCC(Oc3ccc(N4CCCC4=O)cc3)CC2)c2ccccc21` [Example 18, 1-methyl-2-oxo-4-{4-[4-(2-oxopyrrolidin-1-yl)phenoxy]piperidin-1-yl}-1,2-dihydroquinoline-3-carbonitrile] was 0.055 µM; that for `Cn1c(=O)c(C#N)c(N2CCC(Oc3ccc(-n4ccnc4)cc3)CC2)c2ccccc21` [Example 19, 4-{4-[4-(1H-imidazol-1-yl)phenoxy]piperidin-1-yl}-1-methyl-2-oxo-1,2-dihydroquinoline-3-carbonitrile] was 0.064 µM; that for `Cn1c(=O)c(C#N)c(N2CCC(Oc3ccc(N4CCOCC4)cc3)CC2)c2ccccc21` [Example 20, 1-methyl-4-{4-[4-(morpholin-4-yl)phenoxy]piperidin-1-yl}-2-oxo-1,2-dihydroquinoline-3-carbonitrile] was 0.081 µM.

In turn, `CN1CCCN(c2ccc(OC3CCN(c4c(C#N)c(=O)n(C)c5ccccc45)CC3)cc2)C1=O` [Example 21, 1-methyl-4-{4-[4-(3-methyl-2-oxo-1,3-diazinan-1-yl)phenoxy]piperidin-1-yl}-2-oxo-1,2-dihydroquinoline-3-carbonitrile] displayed an IC50 of 0.119 µM. As for `CN1CCN(c2ccc(OC3CCN(c4c(C#N)c(=O)n(C)c5ccccc45)CC3)cc2)C1=O` [Example 22, 1-methyl-4-{4-[4-(3-methyl-2-oxoimidazolidin-1-yl)phenoxy]piperidin-1-yl}-2-oxo-1,2-dihydroquinoline-3-carbonitrile], the IC50 was 0.129 µM.

Values taken from patent publication US20230062100A1, “SUBSTITUTED AMINOQUINOLONES AS DGKALPHA INHIBITORS FOR IMMUNE ACTIVATION” (Bayer Aktiengesellschaft, priority 2019, published 2023).
